Data taken from patent publication US5744492A, “Method for inhibiting angiogenesis” (United States of America, priority 1994, dated 1998).

How the values were obtained:
[1] = tested on: chick chorioallantoic membrane; test: Chick chorioallantoic membrane (CAM) angiogenesis assay; format: in vivo
Experimental: The chick chorioallantoic or yolk sac membrane (CAM) assays for angiogenesis are important in vivo models of microvessel formation. […] Briefly, fertilized chick embryos with the yolk intact were removed from their shells on day 3 of development and incubated at 37° C.

[2] = tested on: β-actin; test: Northern blot, β-actin probe for quantitation of RNA load in HUVECs; format: cell-based, human; conditions: bFGF 10 ng/mL alone, 24 hr
Experimental: (§1) Human umbilical vein endothelial cells (H 930) were generously supplied by Dr. Tom Maciag, American Red Cross (Gaithersburg, Md., USA) and were used between passages 9 and 14 to avoid senescence. HUVECs were grown on fibronectin-coated tissue culture plastic (200 μg/150 mm dish) in complete medium (Medium 199 (M-199) containing 5 U/mL preservative-free heparin, 25.5 μg/mL ECGS, 10% fetal bovine serum and 100 U/mL penicillin, 100 μg/mL streptomycin, and 0.25 μg/mL fungizone).
(§2) HUVECs were grown to confluence as described. Fresh complete medium with test compounds was added to confluent cells for an additional 24 hr incubation. bFGF (10 ng/mL), and/or compound 1 (10 μM) or DMSO control (0.1%) were added as indicated below. Total RNA was isolated by the guanidine isothiocyanate/CsCl method. Aliquots of RNA (7.5 μg) were separated on 1% agarose/formaldehyde gels, passively transferred to GeneScreen Plus membrane in 20X SSC, then cross-linked with ultraviolet light. Blots were prewashed for 1 hr at 42° C. in 1M NaCl, 10 mM Tris, 1 mM EDTA, 0.1% SDS and then hybridized overnight at 42° C. with a formamide-containing buffer (hybridization buffer final: 50% formamide, 4X SSC, 10 mM Tris pH 7.5, IX Denhardt solution, 0.2% SDS, 125 μg/ml salmon sperm DNA) with a random-primed 300 bp insert for MMP-2 (gift of Dr. William Stetler-Stevenson, Laboratory of Pathology, NCI). Blots were washed under stringent conditions then exposed to film. After removal of MMP-2 probe, blots were rehybridized with β-actin probe for quantitation of the RNA load. Results were quantitated by densitometric evaluation of the autoradiographs.
(§3) Lane 1 corresponds to the mRNA from HUVECs treated with DMSO (control). Lanes 2-4 show the mRNA isolated from HUVECs treated with compound 1 (10 μM) alone, compound 1 (10 μM) and bFGF (10 ng/mL), bFGF (10 ng/mL) alone, respectively.

[3] = tested on: MMP-2; test: Northern blot analysis of MMP-2 expression in HUVECs; format: cell-based, human; conditions: bFGF 10 ng/mL alone, 24 hr
Experimental: as §1, §2, §3

[4] = positive control, 60μ (text: 60 μg)

NC(=O)c1nc[nH]c1N [AIC, aminoimidazole carboxamide, reference compound]
% Inhibition (capillary formation in vivo) ([1]; 10 μM, 48 hr): 16%
Eggs with avascular zones/total ([1]; 10 μM, 48 hr): 4/24
angiogenesis inhibitory effect (in words) ([1]; 10 or 20 μM, 48 hr): inactive

C[C@]12CCC(=O)C=C1CC[C@@H]1[C@@H]2[C@@H](O)C[C@@]2(C)[C@H]1CC[C@]2(O)C(=O)CO [Hydrocortisone, hydrocortisone, reference compound]
% Inhibition (capillary formation in vivo) [1, 4]: 55%
Eggs with avascular zones/total [1, 4]: 10/18

bFGF: Recombinant basic fibroblast growth factor (bFGF)
β-actin (densitometer) [2]: 205 Densitometer units
Corrected values (MMP-2 mRNA corrected for loading) [3]: 0.37
MMP-2 (densitometer) [3]: 77 Densitometer units
